Source: patent publication US20220204510A1, “2,3-DIHYDRO-1H-PYRROLIZINE-7-FORMAMIDE DERIVATIVE AND APPLICATION THEREOF” (CHIA TAI TIANQING PHARMACEUTICAL GROUP CO., LTD., priority 2018, published 2022)
Like-named read-outs stand apart in the source and are kept apart here.

What was measured:
[1] = Metabolic stability in liver microsomes; assay type: in vitro ADME; conditions: for half-life at 1 μM: 1 μM compound, 0.5 mg/mL; for microsomal CLint at 1 μM: read-out: CLint(mic)
Experimental: Experimental objective: to evaluate the metabolic stability of test compounds 18 and 25 in liver microsomes of rats, beagle dogs and cynomolgus monkeys
(§1) Experimental procedures: first, the test compound (10 mM) was subjected to a two-step dilution, where the compound was diluted to an intermediate concentration of 100 μM with 100% methanol, and the working solution was diluted to 10 μM with a potassium phosphate buffer; eight 96-well incubation plates were prepared, and named T0, T5, T10, T20, T30, T60, Blank and NCF60, respectively; the reaction time points corresponding to the first 6 incubation plates were 0, 5, 10, 20, 30 and 60 min, respectively; for the Blank plate, neither the test compound nor a control compound was added, and for the NCF60 plate, potassium phosphate buffer was used in an incubation of 60 min in place of a NADPH regeneration system solution; 10 μL of the test compound working solution and 80 μL of the microsome working solution (liver microsome protein concentration was 0.625 mg/mL) were added to the T0, T5, T10, T20, T30, T60 and NCF60 plates, while only the microsome working solution was added to the Blank plate, and all the incubation plates were then placed in a 37° C. water bath for pre-incubation for about 10 min; after the pre-incubation, 10 μL of a NADPH regeneration system working solution was added into each sample well of all the plates except the NCF60 plate and T0 plate to start the reaction, and 10 μL of potassium phosphate buffer was added to each well of the NCF60 plate; therefore, in the test compound or control compound samples, the final reaction concentrations of the compound, testosterone, diclofenac and propafenone were 1 μM, the concentration of the liver microsomes was 0.5 mg/mL, and the final concentrations of DMSO and acetonitrile in the reaction system were 0.01% (v/v) and 0.99% (v/v), respectively; after incubation for an appropriate time (such as 5, 10, 20, 30, and 60 min), 300 μL of a stop solution (acetonitrile solution containing 100 ng/mL tolbutamide and 100 ng/mL labetalol) was added to each sample well to stop the reaction; 300 μL of the stop solution and then 10 μL of the NADPH working solution were added to the T0 plate, all the sample plates were shaken and centrifuged in a centrifuge (3220×g) for 20 min, and then 100 μL of supernatant was taken from each well and diluted with 300 μL of pure water for liquid chromatography-tandem mass spectrometry analysis.

HBV = experiment: qPCR test in the HBV in vitro test (HBV DNA in HepG2.2.15 cells); assay type: cell-based; conditions: Hepatitis B virus, 192 h, HBV DNA in HepG2.2.15 culture medium, day 8, read-out: Half maximal inhibitory concentration (EC50) of HBV
Experimental: To evaluate the inhibitory effect of the compound on HBV by detecting content of HBV DNA in HepG2.2.15 cells in a real-time qPCR test, with EC50 of the compound as an indicator.
3.1. HepG2.2.15 cells (4×10^4 cells/well) were inoculated into a 96-well plate and cultured at 37° C. in 5% CO2 overnight. 3.2. On day 2, the compound was 3-fold diluted in gradient for a total of 8 dilution gradients. The compound at different concentrations was added into the culture wells in duplicate. The final concentration of DMSO in the culture medium was 1%. 1 μM GLS4 was used as a 100% inhibition control (the structure of GLS4 disclosed in WO2008154817A1 is as follows:
1% DMSO was used as a 0% inhibition control. 3.3. On day 5, the culture medium was replaced with a fresh culture medium containing the compound. 3.4. On day 8, the culture medium in the culture wells was collected, and the high-throughput DNA purification kit (Qiagen-51162) was used to extract DNA. For specific steps, refer to the product manual.
3.6. Each well of the 96-well PCR plate was added with 15 μL of the reaction mixture, and then with 10 μL of sample DNA or HBV DNA standard. 3.7. The reaction conditions for PCR: heating at 95° C. for 10 min, degeneration at 95° C. for 15 s, and extension at 60° C. for 1 min, with a total of 40 cycles.
3.8.1. Calculation of the inhibition percentage: % Inh.=[1−(DNA copy number in the sample−DNA copy number in 1 μM GLS4)/(DNA copy number in the DMSO control−DNA copy number in 1 μM GLS4)]×100. 3.8.2. Calculation of EC50: half maximal inhibitory concentration (EC50) of the compound for HBV was calculated using GraphPad Prism software. 3.8.3.

[2] = Metabolic stability in liver microsomes; assay type: in vitro ADME; conditions: mouse, CD-1 mice liver microsomes; for half-life at 1 μM: 1 μM compound, 0.5 mg/mL; for microsomal CLint at 1 μM: read-out: CLint(mic)
Experimental: Experimental objective: to evaluate the metabolic stability of the test compound in CD-1 mice and human liver microsomes
as §1

hepatitis B virus = experiment: In vivo efficacy in the HDI/HBV mouse model; conditions: HDI/HBV mice
Excerpt: Experimental objective: to assay the efficacy of the compound against hepatitis B virus in mice through the HDI/HBV mouse model.
Preparation of compound: the solvent was an aqueous solution containing 10% polyethylene glycol-15 hydroxystearate; a certain amount of the test compounds 18 and 25 were separately dissolved in an aqueous solution containing 10% polyethylene glycol-15 hydroxystearate, and the mixtures were vortexed and sonicated to prepare uniform suspensions. The suspensions were stored at 4° C. for later use.
High pressure injection of the HBV plasmid DNA solution via the tail vein of mice: the day of plasmid injection was day 0, the day after injection was day 1, and so on. On day 0, all mice were injected with normal saline containing 10 μg of plasmid DNA via their tail veins at a dose of 8% of body weight, and the injection was completed within 5 s.
Administration: all mice were administered intragastrically twice a day (8/16 h interval) on day 1-6 and once on day 7. All mice were euthanized in the afternoon on day 7. The body weight of the mice, which was monitored every day, remained stable throughout the experiment.
Sample collection: blood was collected from the submandibular vein 4 h after the first administration in the morning on days 1, 3, and 5. All blood samples were collected in K2-EDTA anticoagulation tubes, and centrifuged for 10 min at 4° C., 7000 g to prepare about 40 μL of plasma. All mice were euthanized by CO2 four hours after administration in the morning on day 7. Blood was collected from the heart, and the plasma preparation method was the same as above. Two liver tissues were collected with 70-100 mg each, and quick-frozen by liquid nitrogen. After all samples were collected, they were stored in a −80° C. refrigerator for HBV DNA content detection.
Sample analysis: all plasma samples and liver samples were detected for HBV DNA by qPCR.

[3] = Sprague-Dawley (SD), rat, SD rats liver microsomes
[4] = cynomolgus monkey, Cynomolgus monkeys liver microsomes
[5] = dog, Beagle dogs liver microsomes
[6] = 30 mg/kg intragastrically twice a day
[7] = 10 mg/kg intragastrically twice a day

Compound | CLint scaled at 1 μM [1, 3] | half-life at 1 μM [1, 3] | microsomal CLint at 1 μM [1, 3] | CLint scaled at 1 μM [1, 4] | half-life at 1 μM [1, 4] | microsomal CLint at 1 μM [1, 4] | CLint scaled at 1 μM [1, 5] | half-life at 1 μM [1, 5] | microsomal CLint at 1 μM [1, 5] | EC50 (HBV) | CLint scaled at 1 μM [2] | half-life at 1 μM [2] | microsomal CLint at 1 μM [2] | HBV-DNA reduction Liver (day 7) (hepatitis B virus; [6]) | HBV-DNA reduction Plasma (day 5) (hepatitis B virus; [6]) | HBV-DNA reduction Liver (day 7) (hepatitis B virus; [7]) | HBV-DNA reduction Plasma (day 5) (hepatitis B virus; [7])
C[C@]1(NC(=O)C(=O)c2c(Cl)c(C(=O)Nc3ccc(F)c(F)c3)c3n2CCC3)CC[C@H](CC(=O)O)CC1 [Compound 18] | < 17.3 mL/min/kg | > 2.42 h | < 9.6 µL/min/mg | < 13 mL/min/kg | > 2.42 h | < 9.6 µL/min/mg | < 13.8 mL/min/kg | > 2.42 h | < 9.6 µL/min/mg | 11 nM | < 38 mL/min/kg | > 2.42 h | < 9.6 µL/min/mg | 1.99 Δ Log10 copies/100 ng | 2.84 Δ Log10 copies/μL |  | 
C[C@]1(NC(=O)C(=O)c2c(Cl)c(C(=O)Nc3cc(F)c(F)c(F)c3)c3n2CCC3)CC[C@H](CC(=O)O)CC1 [Compound 25] | < 17.3 mL/min/kg | > 2.42 h | < 9.6 µL/min/mg | < 13 mL/min/kg | > 2.42 h | < 9.6 µL/min/mg | < 13.8 mL/min/kg | > 2.42 h | < 9.6 µL/min/mg | 4 nM | < 38 mL/min/kg | > 2.42 h | < 9.6 µL/min/mg | 2.36 Δ Log10 copies/100 ng | 3.57 Δ Log10 copies/μL | 0.94 Δ Log10 copies/100 ng | 2.0 Δ Log10 copies/μL
